# Assay results from publication doi:10.1101/2021.10.07.463234v2 (biorxiv, 2021).
# Counter-ions that a name gives are not always drawn.
# Biological target: SARS-CoV-2 Mac1 (Severe acute respiratory syndrome coronavirus 2, UniProt P0DTD1)
# Assay: biochemical
# Conditions: 100 µM; inhibitor
row,Compound,%inhibition
1,Cc1cc(C(C#N)c2ccc(Cl)cc2)c(Cl)cc1NC(=O)c1cc(I)cc(I)c1O (stereo not drawn) [Closantel],12.2%
2,NCc1ccc(S(N)(=O)=O)cc1 [Mafenide hydrochloride],8.456%
3,CCN(CC)CC(=O)Nc1c(C)cccc1C [Lidocaine],1.6%
4,COc1cc2nc(N3CCN(C(=O)C4CCCO4)CC3)nc(N)c2cc1OC (stereo not drawn) [Terazosin HCl],2.055%
5,COc1ccccc1OCCNCC(O)COc1cccc2[nH]c3ccccc3c12 (stereo not drawn) [Carvedilol],23.79%
6,C[C@@H](O)[C@H]1C(=O)N2C(C(=O)O)=C(S[C@@H]3CN[C@H](C(=O)N(C)C)C3)[C@H](C)[C@H]12 [Meropenem Trihydrate],21.42%
7,CN(C)CC/C=C1/c2ccccc2Sc2ccc(Cl)cc21 [Chlorprothixene hydrochloride],0%
8,Cc1cccc([C@H](C)c2c[nH]cn2)c1C [Dexmedetomidine HCl],0%
9,CCNC(=O)[C@@H]1CCCN1C(=O)[C@H](CCCNC(=N)N)NC(=O)[C@H](CC(C)C)NC(=O)[C@@H](CC(C)C)NC(=O)[C@H](Cc1ccc(O)cc1)NC(=O)[C@H](CO)NC(=O)[C@H](Cc1c[nH]c2ccccc12)NC(=O)[C@H](Cc1c[nH]cn1)NC(=O)[C@@H]1CCC(=O)N1 [Leuprorelin Acetate],6.662%
10,Nc1ccn([C@@H]2O[C@H](CO)[C@@H](O)C2(F)F)c(=O)n1 [Gemcitabine],32.55%
11,COCCCOc1ccnc(C[S+]([O-])c2nc3ccccc3[nH]2)c1C (stereo not drawn) [Rebeprazole sodium],0%

# Same assay, conditions: read-out: %inhibition
row,Compound,inhibition at 100 µM
1,CC[C@@H](CO)NCCN[C@@H](CC)CO [Ethambutol 2HCl],7.53%
2,O=C1C2CC3CC1CC(O)(C3)C2 [Idramantone],3.83%
3,CCCC(CCC)C(=O)O[C@H]1C[C@H]2CC[C@@H](C1)[N+]2(C)C [Anisotropine Methylbromide],5.8%
4,CC(C)(C)c1ccc(C(O)CCCN2CCC(C(O)(c3ccccc3)c3ccccc3)CC2)cc1 (stereo not drawn) [Terfenadine],11%
5,Brc1c(NC2=NCCN2)ccc2nccnc12 [Brimonidine Tartrate],19.3%
6,Cc1cc(/C=C/C#N)cc(C)c1Nc1ccnc(Nc2ccc(C#N)cc2)n1 [Rilpivirine],7.83%
7,CC(C)NCC(O)COc1ccc(COCCOC(C)C)cc1 (stereo not drawn) [Bisoprolol fumarate],0%
8,"CNCc1ccc(-c2[nH]c3cc(F)cc4c3c2CCNC4=O)cc1 [Rucaparib (AG-014699,PF-01367338) phosphate]",10.4%
9,Cc1ccc(C(=O)N(CCCN)[C@@H](c2nc3cc(Cl)ccc3c(=O)n2Cc2ccccc2)C(C)C)cc1 [Ispinesib (SB-715992)],0%
10,CC(C)N(CCCCOCC(=O)NS(C)(=O)=O)c1cnc(-c2ccccc2)c(-c2ccccc2)n1 [Selexipag],0%
11,CCN(CC)CCOC(=O)C(c1ccccc1)c1ccccc1 [Adiphenine HCl],6.54%
12,Nc1cc(C(Cl)=C(Cl)Cl)c(S(N)(=O)=O)cc1S(N)(=O)=O [Clorsulon],7.3%
13,CC(=O)OCC(=O)[C@@]12OC(C)(C)O[C@@H]1C[C@H]1[C@@H]3C[C@H](F)C4=CC(=O)C=C[C@]4(C)[C@@]3(F)[C@@H](O)C[C@@]12C [Fluocinonide],24.1%
14,CCCc1nn(C)c2c(=O)[nH]c(-c3cc(S(=O)(=O)N4CCN(C)CC4)ccc3OCC)nc12 [Sildenafil Citrate],0%
15,COC1=CC(=O)C[C@@H](C)[C@]12Oc1c(Cl)c(OC)cc(OC)c1C2=O [Griseofulvin],0%
16,O=C(N[C@H](CO)[C@H](O)c1ccc([N+](=O)[O-])cc1)C(Cl)Cl [Chloramphenicol],0%
17,CC(=O)Nc1c(I)c(NC(C)=O)c(I)c(C(=O)O)c1I [Diatrizoate sodium],7.54%
18,C=CC[C@]1(O)CC[C@H]2[C@@H]3CCC4=CC(=O)CCC4=C3C=C[C@@]21C [Altrenogest],0%
19,COc1cc(C(=O)NS(=O)(=O)c2ccccc2C)ccc1Cc1cn(C)c2ccc(NC(=O)OC3CCCC3)cc12 [Zafirlukast],0%
20,C[C@H](Cn1cnc2c(N)ncnc21)OCP(=O)(O)O [Tenofovir],0%
21,COc1cc(Cc2cnc(N)nc2N)cc(OC)c1OC [Trimethoprim],4.05%
22,c1ccc2c(CC3=NCCN3)cccc2c1 [Naphazoline HCl],8.42%
23,CCCCCNC(=N)N/N=C/c1c[nH]c2ccc(OC)cc12 [Tegaserod Maleate],1.73%

row,Compound,inhibition at 100 µM
1,CC(S)C(=O)NCC(=O)O (stereo not drawn) [Tiopronin],0%
2,COc1cc(C(=O)O)ccc1NC(=O)[C@@H]1N[C@@H](CC(C)(C)C)[C@](C#N)(c2ccc(Cl)cc2F)[C@H]1c1cccc(Cl)c1F [Idasanutlin (RG-7388)],0%
3,Cc1ccc(-c2ncc(Cl)cc2-c2ccc(S(C)(=O)=O)cc2)cn1 [Etoricoxib],0%
4,OCc1ccccc1 [Benzyl alcohol],0%
5,CCOc1ccc(Cc2cc([C@@H]3O[C@H](SC)[C@@H](O)[C@H](O)[C@H]3O)ccc2Cl)cc1 [Sotagliflozin (LX4211)],0%
6,NC(=O)Cc1cccc(C(=O)c2ccccc2)c1N [Nepafenac],0%
7,CC[C@@H](C(N)=O)N1CCCC1=O [Levetiracetam],0%
8,C[C@@H]1CC[C@H]2[C@@H](C)C(=O)O[C@@H]3O[C@@]4(C)CC[C@@H]1[C@]32OO4 [Artemisinin],10.9%
9,Nc1[nH]cnc2ncnc1-2 [Adenine HCl],9.72%
10,CC(COc1ccccc1)N(CCCl)Cc1ccccc1 (stereo not drawn) [Phenoxybenzamine HCl],0%
11,C#C[C@]1(O)C=C[C@H]2[C@@H]3CCC4=CC(=O)CC[C@@H]4[C@H]3CC[C@@]21CC [Gestodene],0%
12,OCC(O)CN1CCN(c2ccccc2)CC1 (stereo not drawn) [Dropropizine],20.7%
13,CCc1cccc2c3c([nH]c12)C(CC)(CC(=O)O)OCC3 (stereo not drawn) [Etodolac],0%
14,CN1C(=O)OC(C)(C)C1=O [Trimethadione],0%
15,COc1cc([C@@H]2c3cc4c(cc3[C@@H](O[C@@H]3O[C@@H]5CO[C@@H](C)O[C@H]5[C@H](O)[C@H]3O)[C@H]3COC(=O)[C@H]23)OCO4)cc(OC)c1O [Etoposide],25.5%
16,Cc1cc(C2CCCCC2)n(O)c(=O)c1 [Ciclopirox],22.9%
17,C1N2CN3CN1CN(C2)C3 [Methenamine],1.76%
18,O=C(O)CCCC[C@@H]1SC[C@@H]2NC(=O)N[C@@H]21 [Biotin (Vitamin B7)],0%
19,O=C(O)c1ccc(-n2nc(-c3ccccc3O)nc2-c2ccccc2O)cc1 [Deferasirox],16.8%
20,COc1cc2c(cc1OC)[C@H]1C[C@@H](OC(=O)[C@@H](N)C(C)C)[C@H](CC(C)C)CN1CC2 [Valbenazine tosylate],13.2%
21,CN1CCC(=C2c3ccccc3CC(=O)c3sccc32)CC1 [Ketotifen Fumarate],0%
22,Cc1nccn1CC1CCc2c(c3ccccc3n2C)C1=O (stereo not drawn) [Ondansetron Hydrochloride Dihydrate],0%
23,CCOC(=O)c1cncn1[C@H](C)c1ccccc1 [Etomidate],8.82%

row,Compound,inhibition at 100 µM
1,CCCSc1ccc2[nH]c(NC(=O)OC)nc2c1 [Albendazole],0%
2,Cc1cc(Nc2ncc(Cl)c(Nc3ccccc3S(=O)(=O)C(C)C)n2)c(OC(C)C)cc1C1CCNCC1 [Ceritinib (LDK378)],0%
3,Nc1ccc(C(=O)NCC(=O)O)cc1 [Sodium 4-aminohippurate Hydrate],0%
4,Cc1cccc(CN2CCN(C(c3ccccc3)c3ccc(Cl)cc3)CC2)c1 (stereo not drawn) [Meclizine 2HCl],9.09%
5,C[C@@H](c1nc(-c2ccc(C#N)cc2)cs1)[C@](O)(Cn1cncn1)c1cc(F)ccc1F [Isavuconazole],0%
6,COc1ccc2cc1Oc1ccc(cc1)C[C@H]1c3c(cc4c(c3Oc3cc5c(cc3OC)CCN(C)[C@@H]5C2)OCO4)CCN1C [Cepharanthine],18.2%
7,CCc1cc(C(N)=S)ccn1 [Ethionamide],19.8%
8,CCCc1ncc(C[n+]2ccccc2C)c(N)n1 [Amprolium HCl],0%
9,COCC[n+]1c2c(n(Cc3cnccn3)c1C)C(=O)c1ccccc1C2=O [YM155 (Sepantronium Bromide)],0%
10,C[N+]1(C)[C@@H]2C[C@@H](OC(=O)C(O)(c3cccs3)c3cccs3)C[C@H]1[C@@H]1O[C@@H]12 [Tiotropium Bromide hydrate],19.5%
11,NS(=O)(=O)c1cc2c(cc1C(F)(F)F)NC(Cc1ccccc1)NS2(=O)=O (stereo not drawn) [Bendroflumethiazide],0%
12,N=C1CCCN1Cc1[nH]c(=O)[nH]c(=O)c1Cl [Tipiracil hydrochloride],0%
13,Cc1cccc(C)c1OCC(C)N (stereo not drawn) [Mexiletine HCl],9.05%
14,CC(C)OC(=O)CCC/C=C\C[C@@H]1[C@@H](CC[C@@H](O)CCc2ccccc2)[C@H](O)C[C@@H]1O [Latanoprost],23.8%
15,CC(N)C12CC3CC(CC(C3)C1)C2 (stereo not drawn) [Rimantadine],28.1%
16,COc1cc2nc(N3CCN(C(=O)c4ccco4)CC3)nc(N)c2cc1OC [Prazosin HCl],17.1%
17,CO[C@@H]1[C@H](OC(=O)/C=C/C=C/C=C/C=C/C(=O)O)CC[C@]2(CO2)[C@H]1[C@@]1(C)O[C@@H]1CC=C(C)C [Fumagillin],23.6%
18,N[C@@H](CSCCCO)C(=O)O [Fudosteine],0%
19,COc1cc2nccc(Oc3ccc(NC(=O)Nc4cc(C)on4)c(Cl)c3)c2cc1OC [Tivozanib (AV-951)],9.18%
20,C[C@@H]1O[C@@H](OC[C@H]2O[C@@H](Oc3c(-c4ccc(OCCO)c(OCCO)c4)oc4cc(OCCO)cc(O)c4c3=O)[C@H](O)[C@@H](O)[C@@H]2O)[C@H](O)[C@H](O)[C@H]1O [Troxerutin],0%
21,Nc1nc(=O)c2c([nH]1)NCC(CNc1ccc(C(=O)N[C@@H](CCC(=O)O)C(=O)O)cc1)N2C=O (stereo partly drawn) [Calcium folinate],0%
